Here are results for eight molecules from ChEMBL document CHEMBL6120984, “Novel potent SOS1 inhibitors containing a tricyclic quinazoline scaffold: A joint view of experiments and simulations” (Eur J Med Chem, 2025).

Activity calls are given as the source filed them. The rule behind the calls is not given here. Some results are limits rather than exact numbers.

In data set [1] the target is SOS1-KRAS (Homo sapiens, UniProt Q07889). As to the kind of experiment: Inhibition of 6His peptide-tagged recombinant human SOS1 (564 to 1049 residues)/N-terminal GST-tagged human recombinant KRAS G12C mutant protein-protein interaction incubated for 1 hrs by HTRF assay. The format is protein-complex assay. Background: Time-resolved FRET reads energy transfer from a long-lived donor to a nearby acceptor.

Data set [2] can be described thus: Inhibition of ERK phosphorylation in human DLD-1 cells expressing KRAS G13D mutant incubated for 60 mins by HTRF assay. It counts as cell-based. Particulars: DLD-1, 1 h.
Data set [3] relates to MIA PaCa-2. Kind of data set: Antiproliferative activity against human MIA PaCa-2 cells expressing KRAS G12C mutant assessed as inhibition of cell proliferation incubated for 14 days in 3-D culture condition. It counts as functional, cell-based. Particulars: MIA PaCa-2, 336 h.
Data set [4] deals with MIA PaCa-2. As to the kind of experiment: Antiproliferative activity against human MIA PaCa-2 cells expressing KRAS G12C mutant assessed as maximal inhibition of cell proliferation incubated for 14 days in 3-D culture condition relative to control. The format is functional. Particulars: time 14 day.
A short description of data set [5]: Elimination rate constant in male CD-1 mouse at 10 mg/kg, po measured after 24 hrs by LC-MS/MS analysis. It counts as ADME, organism-based. Particulars: in vivo.
Data set [6] can be described thus: Half-life in male CD-1 mouse at 10 mg/kg, po measured after 24 hrs by LC-MS/MS analysis. It counts as ADME, organism-based. As to conditions: in vivo.
Data set [7] can be described thus: Tmax in male CD-1 mouse at 10 mg/kg, po measured after 24 hrs by LC-MS/MS analysis. It counts as ADME, organism-based. Particulars: in vivo.
Data set [8] in a line: Cmax in male CD-1 mouse at 10 mg/kg, po measured after 24 hrs by LC-MS/MS analysis. Particulars: in vivo. It counts as ADME, organism-based.
The nature of data set [9]: AUC in male CD-1 mouse at 10 mg/kg, po measured after 24 hrs by LC-MS/MS analysis. The format is ADME, organism-based. Particulars: in vivo.
Data set [10] is described as follows: MRT in male CD-1 mouse at 10 mg/kg, po measured after 24 hrs by LC-MS/MS analysis. The format is ADME, organism-based. Particulars: in vivo.
For data set [11], the system named is NCI-H358. Kind of data set: Antiproliferative activity against human NCI-H358 cells expressing KRAS G12C mutant assessed as inhibition of cell proliferation. It counts as functional, cell-based.
The nature of data set [12]: Therapeutic index, ratio of IC50 for human MCF-10A cells to IC50 for human MIA PaCa-2 cells expressing KRAS G12C mutant. As to conditions: read-out: Ratio IC50. The format is toxicity.
In data set [13] the test system is NCI-H441. As to the kind of experiment: Antiproliferative activity against human NCI-H441 cells expressing KRAS G12V mutant assessed as inhibition of cell proliferation. The format is functional, cell-based.
The test system of data set [14] is DLD-1. As to the kind of experiment: Antiproliferative activity against human DLD-1 cells expressing KRAS G13D mutant assessed as inhibition of cell proliferation. It counts as functional, cell-based.
In data set [15] the test system is NCI-H520. As to the kind of experiment: Antiproliferative activity against human NCI-H520 cells expressing wildtype KRAS assessed as inhibition of cell proliferation. The format is functional, cell-based.
The nature of data set [16]: Cytotoxicity against human MCF-10A cells assessed as inhibition of cell proliferation.
Data set [17] in a line: Therapeutic index, ratio of IC50 for human MCF-10A cells to IC50 for human NCI-H358 cells expressing KRAS G12C mutant. The format is toxicity. Particulars: read-out: Ratio IC50.
Data set [18] is described as follows: Therapeutic index, ratio of IC50 for human MCF-10A cells to IC50 for human NCI-H441 cells expressing KRAS G12V mutant. Particulars: read-out: Ratio IC50. The format is toxicity.
Data set [19] is described as follows: Therapeutic index, ratio of IC50 for human MCF-10A cells to IC50 for human DLD-1 cells expressing KRAS G13D mutant. The format is toxicity. Particulars: MCF-10A cells versus DLD-1 cells expressing KRAS G13D mutant, read-out: Ratio IC50.
Data set [20] deals with MIA PaCa-2. Kind of data set: Antitumor activity against human MIA PaCa-2 cells xenografted in female BALB/c nude mouse assessed as tumor growth inhibition at 50 mg/kg, po administered twice daily for 21 days relative to control. The format is functional. Particulars: MIA PaCa-2, 504 h, time 21 day, read-out: TGI. On the technique in general: Xenograft models place foreign cells or tissue in a host animal.

Data set [21] relates to Mus musculus. Kind of data set: In vivo inhibition of ERK phosphorylation in female BALB/c nude mouse xenografted with human MIA PaCa-2 cells assessed as effect on phosphorylated ERK level in tumor at 50 mg/kg, po administered twice daily for 21 days. The format is functional, organism-based. Particulars: time 21.0 day.
In data set [22] the test system is Mus musculus. Kind of data set: In vivo inhibition of AKT phosphorylation in female BALB/c nude mouse xenografted with human MIA PaCa-2 cells assessed as effect on phosphorylated AKT level in tumor at 50 mg/kg, po administered twice daily for 21 days. The format is functional, organism-based. As to conditions: time 21.0 day.
The nature of data set [23]: Toxicity in female BALB/c nude mouse xenografted with human MIA PaCa-2 cells assessed as animal death at 50 mg/kg, po administered twice daily for 21 days. It counts as organism-based. Particulars: in vivo, 504 h, time 21 day.
Data set [24] can be described thus: Toxicity in female BALB/c nude mouse xenografted with human MIA PaCa-2 cells assessed as body weight loss at 50 mg/kg, po administered twice daily for 21 days. It counts as organism-based. Particulars: in vivo, 504 h, time 21 day.

Chain of SOS1-KRAS (Q07889 whole entry, looked up, stated change not applied, the tested form may be a part): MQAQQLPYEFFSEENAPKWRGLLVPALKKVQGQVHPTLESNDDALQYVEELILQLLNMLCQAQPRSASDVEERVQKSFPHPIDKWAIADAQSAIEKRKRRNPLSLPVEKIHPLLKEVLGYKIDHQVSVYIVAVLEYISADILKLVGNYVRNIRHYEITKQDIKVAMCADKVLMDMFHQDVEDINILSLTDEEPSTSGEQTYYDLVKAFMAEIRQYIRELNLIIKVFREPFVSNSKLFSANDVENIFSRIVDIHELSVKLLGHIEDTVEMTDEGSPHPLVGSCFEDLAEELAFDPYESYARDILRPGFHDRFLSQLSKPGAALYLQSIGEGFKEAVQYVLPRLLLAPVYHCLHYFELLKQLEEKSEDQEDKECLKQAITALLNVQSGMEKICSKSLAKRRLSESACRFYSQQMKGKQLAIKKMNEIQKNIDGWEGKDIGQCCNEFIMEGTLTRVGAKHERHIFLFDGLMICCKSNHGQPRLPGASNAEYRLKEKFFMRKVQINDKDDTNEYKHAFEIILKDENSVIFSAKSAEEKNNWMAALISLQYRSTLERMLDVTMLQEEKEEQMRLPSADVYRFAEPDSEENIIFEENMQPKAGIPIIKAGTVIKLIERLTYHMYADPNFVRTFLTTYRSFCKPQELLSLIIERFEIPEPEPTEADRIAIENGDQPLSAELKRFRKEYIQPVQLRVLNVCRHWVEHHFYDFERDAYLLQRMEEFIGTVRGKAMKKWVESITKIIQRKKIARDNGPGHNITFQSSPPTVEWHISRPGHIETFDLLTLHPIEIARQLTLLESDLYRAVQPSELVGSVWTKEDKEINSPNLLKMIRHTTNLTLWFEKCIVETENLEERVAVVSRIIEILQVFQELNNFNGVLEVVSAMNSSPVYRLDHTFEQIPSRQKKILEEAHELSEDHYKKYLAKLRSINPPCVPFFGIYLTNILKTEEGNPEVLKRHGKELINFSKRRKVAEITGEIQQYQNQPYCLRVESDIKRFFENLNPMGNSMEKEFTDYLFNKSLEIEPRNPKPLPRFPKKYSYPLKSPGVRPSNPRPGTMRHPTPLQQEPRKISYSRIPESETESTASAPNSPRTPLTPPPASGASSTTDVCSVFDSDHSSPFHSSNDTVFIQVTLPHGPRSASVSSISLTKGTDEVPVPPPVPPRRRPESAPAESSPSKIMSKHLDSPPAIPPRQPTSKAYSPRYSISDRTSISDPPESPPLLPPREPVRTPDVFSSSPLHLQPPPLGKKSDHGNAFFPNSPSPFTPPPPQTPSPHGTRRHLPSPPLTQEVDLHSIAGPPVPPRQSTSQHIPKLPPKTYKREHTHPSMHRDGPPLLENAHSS

Broadly, the IC50 is the point on the concentration scale where inhibition reaches its midpoint. Take `Cc1nc(N[C@H](C)c2cccc(C(F)F)c2F)c2cc3c(cc2n1)OCCN3C(=O)N1CCN(C)CC1`: the values for the IC50 in data set [1], in [2] and in data set [3] were 24 nM, 97 nM and 660 nM, respectively. Also, the Imax in data set [4] is on record as 79%.
`Cc1nc(N[C@H](C)c2cccc(C(F)F)c2F)c2cc3c(cc2n1)OCCN3C(=O)C1CN(C)C1`: the IC50 in data set [1] worked out at 94 nM; in data set [2] it was 330 nM; in data set [3], 1530 nM. The Imax in [4] is on record as 67%.
As usually defined, the half-life is how long it takes for the measured level to halve. A lower half-life goes with fast loss. The Tmax is the time at which the peak concentration occurs. As usually defined, the Cmax is the highest concentration seen after dosing. The AUC is concentration integrated over time. Read a low AUC as less exposure. A word on the MRT: it is the average time that molecules of a dose stay in the body. Turning to `Cc1nc(N[C@H](C)c2cccc(C(F)F)c2F)c2cc3c(cc2n1)OCCN3C(=O)C1CCN(C)CC1`, the results for the IC50 in data set [1], in [2] and in data set [3] were 5.6 nM, 21 nM and 140 nM, respectively. The Imax in data set [4] stood at 82%. Besides, the k el at 24 h in data set [5] is 0.000111 s⁻¹. Further, in [6], the half-life was 1.72 h. For the same molecule, the Tmax in data set [7] turned out to be 0.5 h. In data set [8], this molecule returned a Cmax of 650 ng/mL. Moreover, the AUC at 24 h in data set [9] was found to be 1920 ng·h/mL. Besides, in data set [10], the MRT came out at 2.11 h.
In the case of `Cc1nc(N[C@H](C)c2cccc(C(F)F)c2F)c2cc3c(cc2n1)OCCN3C(=O)C1CCOCC1`, the IC50 came out at 19 nM in data set [1], 71 nM in [2] and 1320 nM in data set [3]. In [4], the Imax was 76%.
For `Cc1nc(N[C@H](C)c2cccc(C(F)F)c2F)c2cc3c(cc2n1)OCCN3C(=O)N1CCN(C)C[C@@H]1C`, in that order: 481 nM, over 3000 nM, over 10000 nM and 26%.
With `Cc1nc(N[C@H](C)c2cccc(C(F)F)c2F)c2cc3c(cc2n1)OCCN3C(=O)C1CCN(C(C)C)CC1`, the IC50 came to 5.1 nM in data set [1]; 18 nM in data set [2]; 110 nM in [3]; 70 nM in data set [11]; 120 nM in data set [13]; 70 nM in data set [14]. Moreover, the figures for the 50% inhibitory concentration (IC50) in [15] and in data set [16] were 2880 nM and 44600 nM, respectively. Further, in data set [4], the Imax turned out to be 86%. In addition, the selectivity ratio in data set [12], in data set [17], in data set [18] and in data set [19] was over 400 throughout. The molecule also showed a k el at 24 h in [5] of 0.000117 s⁻¹. The molecule also gave a half-life in data set [6] of 1.65 h. The Tmax in data set [7] came out at 1.08 h. Further, the Cmax in data set [8] is 790 ng/mL. Besides, the AUC at 24 h in data set [9] was 2910 ng·h/mL. For the same molecule, the MRT in [10] came out at 2.83 h. Moreover, the inhibition in vivo at 50 mg/kg in [20] stood at 70.5%. In addition, the inhibition result in data set [21] and in data set [22] was “Active” throughout. In addition, the Activity result in data set [23] and in [24] was “Non-toxic” throughout.
Turning to `C=C(F)C(=O)N1CCN(c2nc(OC[C@@H]3CCCN3C)nc3c2CCN(c2cccc4cccc(Cl)c24)C3)C[C@@H]1CC#N` [ADAGRASIB], in [3], the IC50 came out at 250 nM. For the same molecule, in [4], the Imax amounted to 89%.
For `COc1cc2nc(C)nc(N[C@H](C)c3cc(N)cc(C(F)(F)F)c3)c2cc1O[C@H]1CCOC1`, the IC50 in data set [2] turned out to be 30 nM; in data set [3], 150 nM; in [11], 120 nM; in [13], 160 nM; in [14], 100 nM; in data set [15], 2630 nM. For the same molecule, the Imax in [4] was 85%. The molecule also gave a k el at 24 h in data set [5] of 0.000119 s⁻¹. For the same molecule, the half-life in [6] was 1.67 h. Besides, in data set [7], the Tmax is 0.33 h. Also, in data set [8], the peak level (Cmax) was 870 ng/mL. Moreover, in data set [9], the AUC at 24 h turned out to be 2300 ng·h/mL. For the same molecule, the MRT in [10] amounted to 2.44 h. Further, the inhibition in vivo at 50 mg/kg in data set [20] was 56.3%. The inhibition result in data set [21] and in [22] was “Active” in each case.
